Reference: patent US20130217595A1, “METHOD FOR THE IDENTIFICATION OF CATECHOL O-METHYLTRANSFERASE MODULATORS” (Hoffman-La Roche Inc., priority 2010, published 2013)

Target: human COMT (Homo sapiens, UniProt P21964)
Details: SAM limited (500 nM); Alexa Fluor 488-Nitrocatechol substrate; FIG. 5
Description: The term “kinetic readout” refers to the difference of the fluorescent signal measured at two certain time points in the linear part of an enzymatic reaction. One measurement is done at the beginning of the enzymatic reaction (start-point) and after an incubation time a second readout is performed (end-point). The final signal is then calculated in rfu/min as (rfu(end-point)—rfu(start-point))/incubation time. (rfu: relative fluorescence units)
384-well microtiter plate, Corning black with flat clear bottom, non binding surface, polystyrene (ref. 3655)
Reagent and Buffer Stock Solutions: • Buffer stock solutions: • M Phosphate buffer pH 7.6 (Na2HPO4 Fluka 71644, NaH2PO4 Merck 6346.0500) stored at 4° C. • 580 mM MgCl2 (Merck 1.0833.0250), stored at RT • 1 M CaCl2 stored at 4° C. • 65 mM DTT (Sigma D-0632), stored at −20° C. • Recombinant human COMT: prepared in house, stored at −80° C. • 4-Nitrocatechol-Alexa Fluor 488: prepared in house, 1.3 mM in DMSO, stored at RT in the dark • S-Adenosyl-methionine: 10 mM in H2O (Sigma-Aldirch A2804), stored at −20° C. […]
Readout: kinetic measurement on plate: vision TM reader (exc. 475(40) nm, em. 535(45) nm, intensity 7.5%, exposure time 1 s.

human COMT, sequence (P21964 whole entry): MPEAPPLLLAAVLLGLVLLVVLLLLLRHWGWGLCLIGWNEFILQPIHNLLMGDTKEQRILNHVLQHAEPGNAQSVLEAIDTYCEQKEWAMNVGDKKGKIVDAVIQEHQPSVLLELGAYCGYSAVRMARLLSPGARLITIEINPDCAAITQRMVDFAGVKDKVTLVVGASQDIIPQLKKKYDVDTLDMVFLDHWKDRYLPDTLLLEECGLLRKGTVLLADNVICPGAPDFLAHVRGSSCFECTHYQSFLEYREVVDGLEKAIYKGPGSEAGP

## NCCc1ccc(O)c(O)c1 [dopamine]
  kinetic fluorescence readout plateau as a function of compound concentration: Decreasing plateaus were reached with increasing dopamine concentrations
